Experimental data from patent US8808702B2, “Sulfide, sulfoxide and sulfone chalcone analogues, derivatives thereof and therapeutic uses thereof” (Temple University-of the Commonwealth System of Higher …, priority 2006, dated 2014).
Like-named read-outs stand apart in the source and are kept apart here.

Tests used:
DU145 (prostate cancer) = experiment: Effect of compounds on tumor cell lines (assay of Latham et al.), DU145; type: cell-based; details: DU145 cells, read-out: DU 145 potency (IC50)
Protocol: (§1) The effect of the compounds of the invention on tumor cells was determined by the assay described by Latham et al., Oncogene 12:827-837 (1996). Tumor cells K562 (chronic myelogenous leukaemia) or DU145 (prostate cancer) were plated in 12-well dishes at a cell density of 2.5×10^4 cells well. The plated cells were treated 24 hours later with a compound of the invention dissolved in DMSO at multiple concentrations ranging from 1 μM to 100 μM. The plates were examined 96 hours later under an inverted microscope, Olympus CK-2 using an 10× objective, and compound activity was noted by physical observation. When necessary, the total number of viable cells was determined by trypsinizing the wells and counting the number of viable cells, as determined by trypan blue exclusion, using a hemacytometer.
(§2) The representative compounds listed in Tables 1-5 are shown by way of illustration, and are not intended to limit the scope of the invention. The compounds are prepared and tested by methods based on those described above, except that the compound of Table 5 was dissolved in DMSO at multiple concentrations ranging from 0.1 μM to 100 μM

[1] = system: K562 (chronic myelogenous leukaemia); experiment: Effect of compounds on tumor cell lines (assay of Latham et al.), K562; type: cell-based; details: K562 cells, read-out: K 562 potency (IC50)
Protocol: as §1, §2

[2] = 96 hours after treatment, 1 μM to 100 μM
[3] = Table 1, examined 96 hours after treatment, 1 μM to 100 μM in DMSO
[4] = Table 3, examined 96 hours after treatment, 1 μM to 100 μM in DMSO

| SMILES | IC50 (DU145 (prostate cancer); [2]) [µM] | IC50 [1, 2] [µM] | other results |
| --- | --- | --- | --- |
| O=C(NCCN1CCOCC1)c1ccc(C(=O)C(=Cc2ccc(F)c([N+](=O)[O-])c2)SCc2ccc(Br)cc2)cc1 [Example 312] | 1 to 10 | 1 to 10 | – |
| O=C(/C(=C\c1ccc(O)c([N+](=O)[O-])c1)SCc1ccc(Br)cc1)c1ccc(N2CCCC2)cc1 [Example 185] | > 100 | > 100 | – |
| O=C(C(=Cc1ccc(O)cc1O)SCc1cccc(Cl)c1)c1ccc(Br)cc1 [Example 145] | 50 to 100 | 25 to 50 | – |
| O=C(C(=Cc1ccc(F)cc1)SCc1ccc(Br)cc1)c1ccc(SCc2ccc(Br)cc2)c([N+](=O)[O-])c1 [Example 319] | > 100 | > 100 | – |
| Cc1ccc(CS/C(=C/c2ccc(F)c([N+](=O)[O-])c2)C(=O)c2ccc(C(=O)O)cc2)cc1 [Example 348] | 10 to 25 | 1 to 10 | – |
| O=C(C(=Cc1c(O)cc(O)cc1O)SCc1ccc(Cl)cc1Cl)c1ccc(Cl)cc1 [Example 115] | 25 to 50 | > 100 | – |
| COc1ccccc1C=C(SCc1ccc(F)cc1)C(=O)c1ccc(Cl)cc1 [Example 240] | 10 to 25 | 1 to 10 | – |
| Cc1ccc(SC(=Cc2ccc(-c3ccccc3)cc2)C(=O)c2ccc(Br)cc2)cc1 [Example 110] | – | – | IC50 (DU145 (prostate cancer); [3]): 50 to 100 µM; IC50 [1, 3]: 25 to 50 µM |
| CC1=CC(=O)C(C)=C(C(C)(C)CC(=O)Oc2ccc(C(=O)/C(=C\c3ccc(F)c([N+](=O)[O-])c3)SCc3ccc(F)cc3)cc2)C1=O [Example 339] | 1 to 10 | 1 to 10 | – |
| CSc1ccc(C=C(SCc2ccc(Cl)cc2)C(=O)c2ccc(C(=O)O)cc2)cc1 [Example 223] | > 100 | > 100 | – |
| COc1cc(OC)c(C=C(SCc2ccc(F)cc2)C(=O)c2ccc(Cl)cc2)c(OC)c1 [Example 234] | 10 to 25 | 10 to 25 | – |
| Cc1ccc(CSC(=Cc2ccc(Cl)c([N+](=O)[O-])c2)C(=O)c2ccc(C(=O)O)cc2)cc1 [Example 287] | 1 to 10 | ≤ 1 | – |
| Cc1ccsc1C=C(SCc1ccc(Cl)cc1)C(=O)c1ccc([N+](=O)[O-])cc1 [Example 207] | > 100 | > 100 | – |
| O=C(C(=Cc1ccc(Cl)cc1)SCc1ccc(F)cc1)c1ccc(Cl)cc1 [Example 256] | 10 to 25 | 1 to 10 | – |
| O=C(/C(=C\c1ccc(O)c([N+](=O)[O-])c1)SCc1ccc(Br)cc1)c1ccc([N+](=O)[O-])cc1 [Example 184] | 10 to 25 | 10 to 25 | – |
| COc1ccc(C=C(SCc2ccc(Cl)cc2)C(=O)c2ccc(Br)cc2)cc1 [Example 225] | 10 to 25 | 1 to 10 | – |
| O=C(/C(=C\c1ccc([N+](=O)[O-])c(O)c1)SCc1ccc(Br)cc1)c1cc(Cl)ccc1O [Example 161] | 10 to 25 | 10 to 25 | – |
| Nc1c(Br)cc(Br)cc1C=C(Sc1ccc(Br)cc1)C(=O)c1ccc(Br)cc1 [Example 20] | – | – | IC50 (DU145 (prostate cancer); [3]): > 100 µM; IC50 [1, 3]: > 100 µM |
| O=C(O)c1ccc(C(=O)C(=Cc2ccc(Cl)c([N+](=O)[O-])c2)SCc2ccccc2F)cc1 [Example 304] | 1 to 10 | ≤ 1 | – |
| Cc1ccc(SC(=Cc2c(O)cc(O)cc2O)C(=O)c2ccc(Br)cc2)cc1 [Example 67] | – | – | IC50 (DU145 (prostate cancer); [3]): > 100 µM; IC50 [1, 3]: 50 to 100 µM |

| SMILES | IC50 (DU145 (prostate cancer); [2]) [µM] | IC50 [1, 2] [µM] | other results |
| --- | --- | --- | --- |
| COc1cc(C=C(Sc2ccc(Br)cc2)C(=O)c2ccc(Br)cc2)ccc1F [Example 39] | – | – | IC50 (DU145 (prostate cancer); [3]): 1 to 10 µM; IC50 [1, 3]: 1 to 10 µM |
| O=C(/C(=C\c1ccc(O)c([N+](=O)[O-])c1)SCc1ccc(Br)cc1)c1ccc(C(F)(F)F)cc1 [Example 186] | 10 to 25 | 1 to 10 | – |
| CN(C)c1ccc(C=C(SCc2ccc(Cl)cc2)C(=O)c2ccc(Cl)cc2)cc1 [Example 210] | > 100 | 10 to 25 | – |
| COc1cc(OC)c(OC)cc1C=C(SCc1ccc(Br)cc1)C(=O)c1ccc([N+](=O)[O-])cc1 [Example 305] | 10 to 25 | 10 to 25 | – |
| Cc1ccc(CSC(=Cc2ccc(F)c(C)c2)C(=O)c2ccc(Cl)cc2)cc1 [Example 291] | 25 to 50 | 10 to 25 | – |
| O=C(C(=Cc1ccc(Br)cc1)Sc1ccccc1Br)c1ccc(Br)cc1 [Example 9] | – | – | IC50 (DU145 (prostate cancer); [3]): 1 to 10 µM; IC50 [1, 3]: 1 to 10 µM |
| Nc1ccc(/C=C(/SCc2ccc(F)cc2)C(=O)c2ccc(C(=O)O)cc2)cc1[N+](=O)[O-] [Example 333] | 10 to 25 | 10 to 25 | – |
| Cc1ccc(SC(=Cc2ccc(F)cc2F)C(=O)c2ccc(Br)cc2)cc1 [Example 73] | – | – | IC50 (DU145 (prostate cancer); [3]): > 100 µM; IC50 [1, 3]: > 100 µM |
| COc1ccc(C(=O)C(=Cc2ccc(OC)c(O)c2)Sc2ccc(F)cc2)cc1 [Example 56] | – | – | IC50 (DU145 (prostate cancer); [3]): 10 to 25 µM; IC50 [1, 3]: 1 to 10 µM |
| CN(C)c1ccc(C=C(Sc2ccccc2Br)C(=O)c2ccc(Br)cc2)cc1 [Example 12] | – | – | IC50 (DU145 (prostate cancer); [3]): > 100 µM; IC50 [1, 3]: > 100 µM |
| COc1ccc(C(=O)C(=Cc2c(OC)cc(OC)cc2OC)Sc2ccc(F)cc2)cc1 [Example 54] | – | – | IC50 (DU145 (prostate cancer); [3]): 50 to 100 µM; IC50 [1, 3]: 50 to 100 µM |
| Cc1ccc(CSC(=Cc2cc(C)ccc2C)C(=O)c2ccc(Cl)cc2)cc1 [Example 273] | 10 to 25 | 10 to 25 | – |
| COc1ccc(C(=O)C(=Cc2ccc(Br)cc2)Sc2ccc(F)cc2)cc1 [Example 57] | – | – | IC50 (DU145 (prostate cancer); [3]): > 100 µM; IC50 [1, 3]: > 100 µM |
| CCOc1ccc(C=C(SCc2ccc(C)cc2)C(=O)c2ccc(Cl)cc2)cc1OC [Example 289] | 25 to 50 | 25 to 50 | – |
| Cc1ccc(CSC(=Cc2cc([N+](=O)[O-])ccc2F)C(=O)c2ccc(Cl)cc2)cc1 [Example 276] | 1 to 10 | 1 to 10 | – |
| O=C(C(=Cc1ccc(F)c([N+](=O)[O-])c1)SCc1ccc(Br)cc1)c1ccc(C(=O)N2CCN(CCO)CC2)cc1 [Example 316] | ≤ 1 | ≤ 1 | – |
| COc1ccc(CS/C(=C/c2ccc(F)cc2)C(=O)c2ccc(Cl)cc2)cc1 [Example 345] | 10 to 25 | 1 to 10 | – |
| CC(=O)Nc1ccc(/C=C(/SCc2ccc(F)cc2)C(=O)c2ccc(C(=O)O)cc2)cc1[N+](=O)[O-] [Example 332] | 10 to 25 | 1 to 10 | – |
| Cc1ccc(SC(=Cc2sccc2C)C(=O)c2ccc(Br)cc2)cc1 [Example 83] | – | – | IC50 (DU145 (prostate cancer); [3]): 50 to 100 µM; IC50 [1, 3]: 50 to 100 µM |
| COc1ccccc1C=C(SCc1ccc(Cl)cc1)C(=O)c1ccc(Cl)cc1 [Example 199] | 1 to 10 | 1 to 10 | – |

| SMILES | IC50 (DU145 (prostate cancer); [2]) [µM] | IC50 [1, 2] [µM] | other results |
| --- | --- | --- | --- |
| O=C(O)c1ccc(C(=O)C(=Cc2ccc(N3CCN(Cc4ccccc4)CC3)c([N+](=O)[O-])c2)SCc2ccc(F)cc2)cc1 [Example 328] | 1 to 10 | 1 to 10 | – |
| O=C(C(=Cc1ccc(F)c([N+](=O)[O-])c1)SCc1ccc(Br)cc1)c1ccc(F)cc1 [Example 318] | ≤ 1 | ≤ 1 | – |
| Cc1ccc(CSC(=Cc2cccc(Cl)c2Cl)C(=O)c2ccc(Cl)cc2)cc1 [Example 271] | 25 to 50 | 25 to 50 | – |
| CN(C)c1ccc(C=C(SCc2ccc(Cl)c(Cl)c2)C(=O)c2ccc(Cl)cc2)cc1 [Example 142] | 50 to 100 | 50 to 100 | – |
| O=C(C(=Cc1ccc(OC(F)(F)F)cc1)Sc1ccc(Br)cc1)c1ccc(Br)cc1 [Example 51] | – | – | IC50 (DU145 (prostate cancer); [3]): 1 to 10 µM; IC50 [1, 3]: 1 to 10 µM |
| Cc1cc(C)cc(C=C(SCc2ccc(Cl)cc2)C(=O)c2ccc(Cl)cc2)c1 [Example 202] | 10 to 25 | 10 to 25 | – |
| O=C(/C(=C\c1ccc(F)c([N+](=O)[O-])c1)SCc1ccc(F)cc1)c1ccc(SCc2ccc(F)cc2)c([N+](=O)[O-])c1 [Example 335] | 10 to 25 | 1 to 10 | – |
| Cc1ccc(SC(=Cc2c(O)cc(O)cc2O)C(=O)c2ccc(Cl)cc2)cc1 [Example 68] | – | – | IC50 (DU145 (prostate cancer); [3]): > 100 µM; IC50 [1, 3]: > 100 µM |
| Cc1ccc(CSC(=Cc2ccc[nH]2)C(=O)c2ccc(Cl)cc2)cc1 [Example 280] | 25 to 50 | 1 to 10 | – |
| Cc1ccc(SC(=Cc2ccc(Cl)c(Cl)c2)C(=O)c2ccc(Br)cc2)cc1 [Example 77] | – | – | IC50 (DU145 (prostate cancer); [3]): 50 to 100 µM; IC50 [1, 3]: 50 to 100 µM |
| O=C(C(=Cc1ccc(Cl)cc1)Sc1ccc(Br)cc1)c1ccc(Br)cc1 [Example 38] | – | – | IC50 (DU145 (prostate cancer); [3]): 1 to 10 µM; IC50 [1, 3]: 1 to 10 µM |
| O=C(/C(=C\c1ccc(F)cc1C(F)(F)F)[S+]([O-])Cc1ccc(Cl)cc1)c1ccc(Cl)cc1 (centres unmarked) [Example 355] | – | – | IC50 (DU145 (prostate cancer); [4]): 50 to 100 µM; IC50 [1, 4]: 50 to 100 µM |
| O=C(C(=Cc1ccc(Br)cc1)SCc1ccccc1Cl)c1ccc(Cl)cc1 [Example 129] | 10 to 25 | 1 to 10 | – |
| CSc1ccc(C=C(Sc2ccc(C)cc2)C(=O)c2ccc(Br)cc2)cc1 [Example 97] | – | – | IC50 (DU145 (prostate cancer); [3]): 25 to 50 µM; IC50 [1, 3]: 1 to 10 µM |
| CN(C)c1ccc(C=C(SCc2ccc(Cl)cc2)C(=O)c2ccc(C(=O)O)cc2)cc1 [Example 209] | 1 to 10 | 1 to 10 | – |
| COc1ccc(C=C(Sc2ccc(Br)cc2)C(=O)c2ccc(Br)cc2)c(F)c1 [Example 23] | – | – | IC50 (DU145 (prostate cancer); [3]): 10 to 25 µM; IC50 [1, 3]: 1 to 10 µM |
| O=C(C(=Cc1ccc(O)cc1)SCc1ccc(Cl)c(Cl)c1)c1ccc(Cl)cc1 [Example 144] | 1 to 10 | 1 to 10 | – |
| O=C(C(=Cc1c(O)cc(O)cc1O)SCc1ccc(Cl)c(Cl)c1)c1ccc(Cl)cc1 [Example 136] | 25 to 50 | 25 to 50 | – |
